In patent US9387215B2, “Animal feed including cationic cholesterol additive and related methods” (priority 2013, dated 2016):

Tests used:
Assay type in all cases: in vivo
[1] = Confined animal feed operation study of chickens, additive in drinking water; details: for Harvest weight / Weight gain: day one through day 35, CSA-44 5 ppm in drinking water, control tetracycline in feed; for Death loss: in vivo
Description: A study of 50,000 birds performed in 2 groups of 25,000 birds was performed on a confined animal feed operation. The following cationic cholesterol additive (CSA-44) was added to animal drinking water:
The additive was prepared in drinking water at a concentration of 5 ppm. The dry feed administered to the chickens contained no antibiotic.
A control group of birds was delivered tetracycline in animal feed according to conventional practices.
The cationic cholesterol additive was given from day one through day 35.

[2] = tested on: Lactobacillus bacteria (LAB); assay: Lactobacillus bacteria (LAB) concentration in ileum, cecum and colon of mice after oral CSA-44; details: 10 mg/kg oral gastric lavage, 12 and 24 hours post Tx
Description: To evaluate the effectiveness of cationic cholesterol compounds on GI microbiota, the following compound (CSA-44) was administered oraly by gastric lavage to mice at 10 mg/kg:
To determine the health improvements caused by the cationic cholesterol compound, the concentration (cfu/mL) of Lactobacillus bacteria (LAB) (beneficial flora) in the ileum, cecum, and colon was determined at 12 and 24 hours. The LAB concentration was compared to control mice.
As illustrated in the graphs of FIGS. 1 and 2, the cationic cholesterol compound appears to have a significant “sparing” effect on beneficial Lactobacillus bacteria (LAB) flora (log values on y-axis) in the ileum, cecum and colon (on x-axis) when compared to control mice at 12 and 24 hours after being given CSA-44 (“post Tx”), resulting in almost a 2 log increase in LAB concentration in all 3 segments of the intestine when compared to control mice. This increase in LAB concentration flora is a surprising and unexpected result.

[3] = tested on: C. difficile; assay: LD50 C. difficile challenge model, survival of mice; details: administered 24 hours after C. difficile challenge; Day 0, Day 3, Day 10; versus control mice; FIG. 5
Description: The mice of Example 2 were also evaluated for decreased morbidity in an LD50 C. difficile challenge model. The cationic cholesterol compound was administered 24 hours after C. difficile challenge (“Tx 24 Hr.”). FIG. 4 illustrates the steps used in performing the study.

[4] = tested on: C. difficile ATCC 9689; assay: Weight gain of mice after C. difficile challenge; details: oral 10 mg/kg once, 24 and 48 hours after 1×10^5 cfu or 72 hours after 1×10^6 cfu challenge; FIG. 3
Description: In another study with the mice of Example 2, a cationic cholesterol additive was administered to determine changes in weight gain. The compound was administered orally @10/mg/kg once, 24 and 48 hours after C. difficile ATCC 9689 challenge at 1×10^5 cfu (or CFU) or 72 hours after challenge with 1×10^6 cfu (or CFU) (Day 0). The results are illustrated in the graph of FIG. 3.

In the case of `CCCCCCCCOC(=O)CC[C@@H](C)[C@H]1CC[C@H]2[C@@H]3[C@H](OC(=O)CCN)C[C@@H]4C[C@H](OC(=O)CCN)CC[C@]4(C)[C@H]3C[C@H](OC(=O)CCN)[C@]12C` [CSA-44], the “Feed conversion efficiency improved” value ([1]; chickens, 5 ppm in drinking water, versus tetracycline control) is reported as 8%, the Harvest weight ([1]; chickens) is reported as 4.22 lbs and the Weight gain ([1]; chickens) is reported as 0.120 lbs per day. For the same molecule, the Death loss [1] was 535 birds, the “Increase in LAB concentration compared to control mice” value [2] was about 2 log and the Survival rate [3] was “improved survival rate”. The “Weight gain after challenge with C. difficile” value [4] was “trend for the treated mice to have greater weight gain”.
For `CN(C)[C@@H]1C(O)=C(C(N)=O)C(=O)[C@@]2(O)C(O)=C3C(=O)c4c(O)cccc4[C@@](C)(O)[C@H]3C[C@@H]12` [tetracycline, reference compound], the Harvest weight ([1]; chickens) was 3.85 lbs, the Weight gain ([1]; chickens) was 0.112 lbs per day and the Death loss [1] was 1400-1500 birds.
